In brackets after ≈: the same amount, converted by molar mass.
Assays:
[1] = Solubility in water; settings: for solubility: water
[2] = Solubility in water in the presence of excess toluene; format: physicochemical; settings: excess of toluene added to the aqueous phase; relative to 3.2 mg/ml in water
Procedure: The suspension obtained upon cooling a neutralization of reaction mixture was concentrated to 600 ml and dialyzed for 7 h at room temperature. The retained suspension (.intg.700 ml) was stirred with toluene (10 ml) for 14 h, water (500 ml) was added, stirred for 15 min, and filtered. The residue was suspended in water (1.25 L), stirred for 1 h, and filtered. The combined filtrates were concentrated to 200 ml, refrigerated overnight, the sclid was collected by filtration, and recrystallized from hot water to yield white crystals of the product. Rf 0.25 (1-propanol-water-ethyl acetate-ammonium hydroxide, 6:3:1:1), FIG. 1. M.P. 292°-293° C. MS (FAB+) m/e 1193.2 (M+H^+), 1210.3 (M+H2 O). MS (FAB-) m/e 1191.1 (M-H^+), 1210.2 (M+H2 O). MS (^252 Cf) m/e 1215.8 (M+Na^+). ^1 H-NMR (D2 O) δ5.30-5.23 and 5.17- 5.05 (m, 7H, H-1), 4.16-3.40 (m, 45H), 1.17 (d, J=6.42, 3H, CH3). Anal. for C45 H76 O36 ·3H2 O; calcd. C 43.30, H 6.58; found C 43.31, H 6.43.

Row | solubility [1] [µg/mL] | Molecule | further results
1 | – | CC(O)CO[C@H]1[C@H]2O[C@H]3[C@H](O)[C@@H](O)[C@@H](O[C@H]4[C@H](O)[C@@H](O)[C@@H](O[C@H]5[C@H](O)[C@@H](O)[C@@H](O[C@H]6[C@H](O)[C@@H](O)[C@@H](O[C@H]7[C@H](O)[C@@H](O)[C@@H](O[C@H]8[C@H](O)[C@@H](O)[C@@H](O[C@@H]([C@@H]1O)[C@@H](CO)O2)O[C@@H]8CO)O[C@@H]7CO)O[C@@H]6CO)O[C@@H]5CO)O[C@@H]4CO)O[C@@H]3CO (stereo partly drawn) [2-O-(2-hydroxypropyl)-β-cyclodextrin] | solubility (qualitative) ([1]; inferred as probable reason for easy isolation): very low solubility
2 | 7500 (≈ 6.29 mM) | C[C@@H](O)CO[C@H]1[C@H]2O[C@H]3[C@H](O)[C@@H](O)[C@@H](O[C@H]4[C@H](O)[C@@H](O)[C@@H](O[C@H]5[C@H](O)[C@@H](O)[C@@H](O[C@H]6[C@H](O)[C@@H](O)[C@@H](O[C@H]7[C@H](O)[C@@H](O)[C@@H](O[C@H]8[C@H](O)[C@@H](O)[C@@H](O[C@@H]([C@@H]1O)[C@@H](CO)O2)O[C@@H]8CO)O[C@@H]7CO)O[C@@H]6CO)O[C@@H]5CO)O[C@@H]4CO)O[C@@H]3CO [2-O-[(R)-2'-Hydoxypropy]-β-cyclodextrin] | –
3 | 12000 (≈ 9.93 mM) | OC[C@H](O)CO[C@H]1[C@H]2O[C@H]3[C@H](O)[C@@H](O)[C@@H](O[C@H]4[C@H](O)[C@@H](O)[C@@H](O[C@H]5[C@H](O)[C@@H](O)[C@@H](O[C@H]6[C@H](O)[C@@H](O)[C@@H](O[C@H]7[C@H](O)[C@@H](O)[C@@H](O[C@H]8[C@H](O)[C@@H](O)[C@@H](O[C@@H]([C@@H]1O)[C@@H](CO)O2)O[C@@H]8CO)O[C@@H]7CO)O[C@@H]6CO)O[C@@H]5CO)O[C@@H]4CO)O[C@@H]3CO [2-O-[(S)-2', 3'-Dihydroxypropyl-β-cyclodextrin] | –
4 | 3200 (≈ 2.68 mM) | C[C@H](O)CO[C@H]1[C@H]2O[C@H]3[C@H](O)[C@@H](O)[C@@H](O[C@H]4[C@H](O)[C@@H](O)[C@@H](O[C@H]5[C@H](O)[C@@H](O)[C@@H](O[C@H]6[C@H](O)[C@@H](O)[C@@H](O[C@H]7[C@H](O)[C@@H](O)[C@@H](O[C@H]8[C@H](O)[C@@H](O)[C@@H](O[C@@H]([C@@H]1O)[C@@H](CO)O2)O[C@@H]8CO)O[C@@H]7CO)O[C@@H]6CO)O[C@@H]5CO)O[C@@H]4CO)O[C@@H]3CO [2-O-[(S)-2'-Hydroxypropyl]-β-cyclodextrin] | solubility in water with excess of toluene added [2]: only insignificantly changed
5 | – | Mono[(S)-2-Hydroxypropyl]-α-Cyclodextrin | solubility in water: > 50%

Row | Molecule | solubility [1] [µg/mL] | further results
6 | CC(O)CO[C@H]1[C@H]2O[C@H]3[C@H](O)[C@@H](O)[C@@H](O[C@H]4[C@H](O)[C@@H](O)[C@@H](O[C@H]5[C@H](O)[C@@H](O)[C@@H](O[C@H]6[C@H](O)[C@@H](O)[C@@H](O[C@H]7[C@H](O)[C@@H](O)[C@@H](O[C@H]8[C@H](O)[C@@H](O)[C@@H](O[C@@H]([C@@H]1O)[C@@H](CO)O2)O[C@@H]8CO)O[C@@H]7CO)O[C@@H]6CO)O[C@@H]5CO)O[C@@H]4CO)O[C@@H]3CO (stereo partly drawn) [2-O-[(RS)-2'-Hydroxypropyl]-β-cyclodextrin] | 4000 (≈ 3.35 mM) | –
